Measurements from patent US20040029787A1, “Use of substances with oxytocin activity against climacteric disorders” (priority 2000, published 2004).
“And” between values parts separate entries of the source, which are not always exact repeats. Identical values can stand only once.

Legend:
ovariectomised rats [1] = test: Hot flush model: tail skin temperature after naloxone withdrawal in morphine-addicted ovariectomised rats; type: in vivo, rat; details: vehicle rats 5-6° C. elevation
Protocol: (§1) Virgin adult cycling Sprague-Dawley rats weighing 300-350 g (Example 4) and 190-210 g (Example 5) and with regular 4-day oestrous cycles were used (Möllegaard, Denmark). The rats were housed 4 to each cage with free access to pelleted food and tap water at 22° C. and with a 12 h light/12 h dark cycle for at least 1 week before and throughout the experimental period.
In this study, ovariectomised rats (300-350 g) were treated with oxytocin for 8 days subcutaneously. Rats were addicted to morphine by implanting a morphine pellet (75 mg each) subcutaneously on days 3 and 5 of treatment. On the last day of treatment, an infrared thermistor was placed above the tail of each animal and morphine addiction was withdrawn by naloxone injection (1.0 mg/kg, subcutaneously). Temperature measurements were taken for 1 h under ketamine (80 mg/kg. intramuscularly) anaesthesia.

[2] = system: postmenopausal women with atrophic, ulcerous vaginal mucous membranes; test: Intravaginal oxytocin administration to postmenopausal women (seven women, inspection by gynaecologist); type: in vivo, human; details: oxytocin 1 mg/ml mixed with 1 ml cellulose gel intravaginally
Protocol: Seven women at an age of 60-70 years, otherwise completely healthy, with expressed postmenopausal disorders in the form of white, thin, atrophic, easy-bleeding and ulcerous vaginal mucous membranes were included in the study. They were treated with oxytocin 1 mg/ml mixed with 1 ml cellulose gel intravaginally driving five consecutive days,
The treatment was effected by a gynaecologist who inspected the mucous membranes. After a treatment lasting 2-3 days, the mucous membranes had improved in that they looked like those in a female woman.
At the same time, it was observed that the mood of the women was improved. They seemed obviously happy and reported that they felt happy, and many of them had resumed their sex lives.

[3] = system: women two years into menopause with vaginal rash, pain and dryness; test: Double blind intravaginal oxytocin gel versus cellulose gel in 20 menopausal women, biopsy and interview; type: in vivo, human
Protocol: Besides, a further experiment was conducted, wherein 20 women, all of them at two years into menopause and otherwise healthy. None of them underwent hormone replacement therapy. All patients had objective and subjective symptoms of vaginal rash, pain and a feeling of dryness.
Ten patents were treated with oxytocin 1 mg/ml mixed with 1 ml close gel intravaginally during five consecutive days, whereas the remaining ten patients were treated with 1 ml cellulose gel intravaginally dog five consecutive days as control. Before treatment with either control or oxytocin gel we took a biopsy, this procedure was repeated after 5 days of treatment. The protocol was a double blind protocol, ie the microscopic evaluations were performed by the same experienced pathologist before the code was broken.

ovariectomised rats [4] = test: Subcutaneous oxytocin administration to ovariectomised rats, endocrine study; type: in vivo, rat; details: 1 mg/kg subcutaneously during five days
Protocol: (§2) Female sexually mature Sprague-Dawley rats weighing 250-300 g were used (B & K Universal Sollentuna, Sweden). The rats were housed 5 to each cage with free access to food and tap water at 20±2° C. and with a 12 h light/12 h dark cycle for at least 3 weeks before and throughout the experimental period.
Ovariectomy means removal of an ovary or ovaries and can eg be effected according to Merchentaler, I., Funkhouser, J. M., Carver, J. N, Lundeen, S. G., Ghosh, K, Winneker, R. C. The effect of estrogens and antiestrogens in a rat model for hot flush. Maturitas, Nov 16, 1998; 30(3): 307-316.
In an experimental animal study, eight ovariectomised rats were treated with oxytocin. The ovaries were removed in order to create a menopause-like situation. After a mouth, an endocrine study was made. The “menopausal” rats get a changed hormone balance. Their insulin levels and, to a certain extent their blood sugar levels rise, possibly in consequence of increased insulin resistance. Their cortisol and growth hormone levels decrease, which expresses an inability to mobilise calories for activity. An oxytocin treatment during five days (1 mg/kg given subcutaneously during five days) restored the hormone balance.

ovariectomised rats [5] = test: Subcutaneous oxytocin combined with hormone treatment in ovariectomised rats, plasma corticosterone and GH; type: in vivo, rat; details: oxytocin 1 mg/kg s.c. five days, FIG. 2
Excerpt: FIG. 2 is a bar graph showing the plasma concentrations of corticosterone and growth hormone (GH) in ovariectomised rats subjected to subcutaneous treatment. Group A refers to rats treated with oestrogen, progesterone, and oxytocin. Group B refers to rats treated with oestragen and progesterone. Group C refers to rats treated with oxytocin. Group D refers to rats treated with saline.
as §2
In another experimental animal study, the effect of oxytocin (1 mg/kg given subcutaneously during five days) combined with hormone treatment was investigated. All treatment groups A-D each contained eight ovariectomised rats. […] Analogously to the insulin levels, the corticosterone and GH levels were normalised (but increased) by oxytocin treatment.

ovariectomised rats [6] = test: Weight change in ovariectomised rats given subcutaneous oxytocin; type: in vivo, rat
Protocol: as §2
A rat having its ovaries removed also gains weight compared to untreated rats.

ovariectomised rats [7] = test: Forward locomotion of ovariectomised rats after intravaginal oxytocin gel; type: in vivo, rat; design: forward locomotion, Minutes 1-15 / forward locomotion, Minutes 16-30 / forward locomotion, Minutes 1-30 / forward locomotion, Minutes 1-15, AVERAGE / forward locomotion, Minutes 16-30, AVERAGE / forward locomotion, Minutes 1-30, AVERAGE: unit not given here
Protocol: as §2
The ovaries of seven female rats were removed. After 2 weeks, the rats were treated with oxytocin gel given intravaginally (conc. 1 mg/ml). […] Most probably, there is an activation of nerves present in the vaginal mucous membrane.
The total experimental time is 30 minutes per rat, and the values in table I show the forward locomotion for the first 15 minutes, for the whole experimental time, and for the last 15 minutes.

ovariectomised rats [8] = test: Tail-flick test in ovariectomised rats after intravaginal oxytocin; type: in vivo, rat; details: tails in water at 51° C.; intravaginal oxytocin versus saline; FIG. 4
Protocol: One way of applying somatic discomfort to an organism is to subject a part of it to a high temperature. This relief effect of oxytocin was investigated in a tail-flick test. In this test the tails of ovariectomised rats were immersed in water at 51° C. With reference to FIG. 4, the latency time from the immersion of the tails to the withdrawal thereof were measured for rats treated with oxytocin (▴) and rats treated with saline (□). For each group of rats, the test sessions were accomplished three times with a period of 15 minutes between the sessions. […] A longer latency time means that the rat could stand the somatic discomfort better such as increased temperature ta it otherwise would do.

[9] = system: rats with experimentally-induced polycystic ovaries; test: Oestradiol valerate induced polycystic ovaries (PCO) in rats, NGF and ovarian morphology; type: in vivo, rat; details: oxytocin 1.0 mg/kg subcutaneously every third day
Protocol: as §1
Statistical analyses were carried out using the SPSS 8.0 software. NGF concentrations in the pituitary gland, the hypothalamus, the hippocampus, the ovary, and the adrenal glands were analysed and the groups compared using analyses of variance (ANOVA) followed by multiple comparison procedures Bonferroni test).
All rats (totally 59) received a single intramuscular injection either of oestradiol valerate (EV), oil, or 0.15 M NaCl (Kabi Pharmacia AB, Sweden) and were anaesthetised with enflurane. Twenty rats re injected with 4 mg EV in 0.2 ml oil/rat (ten rats in the control group and ten in the oxytocin treated). They were decapitated after 30 days to elucidate when the ovaries display characteristic features of well-defined PCO (Brawer et al., 1978, Supra; Brawer et al., 1986, supra). The oxytocin treated group received subcutaneous oxytocin 1.0 mg/kg subcutaneously every third day during the experimental period.

ovariectomized rats = test: Bone loss in ovariectomized rats, densitometric and morphometric studies; type: in vivo, rat
Protocol: Four lots of 120-day-old female Wistar rats (mean±SD initial weight 273±28 g) were used. The rats were randomized into groups based on their body weight. […] Sample size was calculated in a pilot study after determining the variability of densitometric measurements.
All rats were fed standard chow feed containing 7.1 g/kg of calcium and 5 g/kg of phosphorus; the energy content of the feed was 3100 kcal/kg. A control group of 15 rats were not manipulated but fed the stud diet (control group, mean initial weight 269±31 g). A experimental group of 15 rats was ovariectomized at 120 days of life and given oxytocin for 10 days 1.0 mg/kg sc. (OVX+Oxy group, mean initial weight 277±32 g). A group of 15 rats underwent ovariectomy (OVX group, mean initial weight 282±27 g). […] The ovariectomy was performed as in previous studies [Rico H, Amo C, Revilla M, Arribas I, Gonzalez-Riola J, Villa L F, Rodriguez-Puyol M Etidronate versus Clodronate in the prevention of postovariectomy bone loss. An experimental study in rats. Clin Exp Rheumatol 1994, 12:301-304]. The manipulated rats were controlled to observe the development of intestinal function, alterations, and infection or dehiscence of surgical sutures. All rats received water ad libitum. The rats were kept for 30 days in the animal laboratory of department of Physiology and Pharmacology, Karolinska Institutet Living conditions (12 hours of light and 12 hours of darkness; mean room temperature 22° C.), habitat, and diet met current guidelines of the European Union. Weight was measured with a precision biomedical balance.
Densitometric and Morphometric Studies. After 30 days, all rats were anesthetized and killed by exsanguination from the abdominal aorta after being anesthetized with 4 mg/100 g body weight of sodium pentothal. The femur and 5th lumbar vertebra of rat were dissected and placed in an 85° C. water bath to remove soft tissue. Femoral length and vertebral height were measured with a caliper and bones were weighed on a precision balance. The BMC and BMD of the whole right femur and 5th lumbar vertebra were measured using a desitometer equipped with a special program for studying small […] and samples. The instrument was calibrated daily. Because of the influence of weight on bone mass in rate [Rico H, Amo C, Revilla M, Arribas I, Gonzalez-Riola J, Villa L F, Rodriguez-Puyol M Etidronate versus Clodronate in the prevention of postovariectomy bone loss. An experimental study in rats. Clin Exp Rheumatol 1994, 12:301-304] and human beings [Rico H, Revilla M, Villa L F, Alvarez de Buergo M A, Ruiz-Contreras D Determinants of total and regional bone mineral content and density in postpubertal normal women. Metabolism 1994, 43 :263-266], BMC was corrected for final body weight (BMC/BW). The BMC and BMD of the femurs and 5th lumbar vertebra were measured separately.

[10] = individual rats R1-R7, oxytocin gel 1 mg/ml intravaginally
[11] = ovariectomized rats, oxytocin 1.0 mg/kg sc for 10 days, after 30 days, mean ± SD

C#C[C@]1(O)CC[C@H]2[C@@H]3CCc4cc(O)ccc4[C@H]3CC[C@@]21C [17-alpha-ethinyloestradiol]
tail skin temperature increase (flashes) after naloxone (ovariectomised rats [1]; 0.1 m g subcutaneous): significantly inhibited

oxytocin
mood of the women [2]: improved | treatment time until mucous membranes had improved [2]: 2 to 3 days | ulcers of vaginal mucous membranes ([2]; after 2-3 days): all ulcers had disappeared | state of vaginal mucous membranes on inspection ([2]; five consecutive days, seven women 60-70 years): improved | inflammation in histology (biopsy) ([3]; after 5 days of treatment): no or a lesser degree of inflammation | histology of vaginal epithelium (biopsy) ([3]; after 5 days of treatment, except cases with normal epithelium before treatment): normalization of the epithelium | subjective relief in interviews ([3]; oxytocin 1 mg/ml in 1 ml gel intravaginally, five days, ten patients, versus cellulose gel control): expressed relief | blood sugar levels (ovariectomised rats [4]; compared to NaCl controls): normalised | plasma insulin levels (ovariectomised rats [4]; compared to control rats treated with NaCl, FIG. 1): normalised ie lowered | plasma GH levels (ovariectomised rats [5]; compared with saline treated rats, eight rats per group): significantly higher | plasma corticosterone levels (ovariectomised rats [5]; compared with rats treated with oestrogen+progesterone): significantly higher | food intake (ovariectomised rats [6]; oxytocin for 10 days): do not eat less | weight gain after ovariectomy (ovariectomised rats [6]; oxytocin for 10 days subcutaneously, versus saline controls, FIG. 3): do not gain weight as much | forward locomotion, Minutes 1-30, AVERAGE (ovariectomised rats [7]; average of 7 rats (SD 1.36), control average 24.71, T-test 0.03*): 26.91 | forward locomotion, Minutes 1-15, AVERAGE (ovariectomised rats [7]; average of 7 rats (SD 1.81), control average 27.10, T-test 0.04*): 30.20 | forward locomotion, Minutes 16-30, AVERAGE (ovariectomised rats [7]; average of 7 rats (SD 2.86), control average 18.33, T-test 0,44 ns): 20.13 | forward locomotion, Minutes 1-30 (ovariectomised rats [7]; [10]): 27.7 (2×) and 25.3 and 25.1 and 26.3 and 28.7 and 27.6 | forward locomotion, Minutes 16-30 (ovariectomised rats [7]; [10]): 20.3 and 19.8 and 17.7 and 23.2 and 21.6 and 15.3 and 23 | forward locomotion, Minutes 1-15 (ovariectomised rats [7]; individual rats R1-R7, oxytocin gel 1 mg/ml intravaginally, two days after completed treatment): 30.7 and 27.8 and 28.8 and 28.6 and 32.2 and 32.3 and 31 | behaviour changes (motor activity such as forward locomotion) (ovariectomised rats [7]; two days after completed intravaginal treatment, compared to gel without oxytocin): increased motor activity | tail-flick latency time (immersion to withdrawal) (ovariectomised rats [8]): increases the latency time | tail skin temperature increase (flashes) after naloxone (ovariectomised rats [1]; repeated oxytocin 1.0 mg/kg subcutaneous for 8 days): significantly inhibited | concentrations of NGF in the ovaries ([9]; 30 days, compared to non-oxy-treated PCO rats): significantly lower | ovarian morphology (PCO changes) ([9]; versus EV control group): significantly less changes | F-BMC (femur bone mineral content) (ovariectomized rats; [11]): 335 ± 37 mg | F-BMC/BW (femur BMC corrected for final body weight) (ovariectomized rats; [11]): 1.12 ± 0.09 mg/g | F-BMD (femur bone mineral density) (ovariectomized rats; [11]): 131 ± 18 mg/cm^2 | Femur (femoral length) (ovariectomized rats; [11]): 35.5 ± 1.3 mm | Femur (weight) (ovariectomized rats; [11]): 712 ± 42 mg | V-BMC (5th lumbar vertebral bone mineral content) (ovariectomized rats; [11]): 110 ± 16 mg | V-BMD (5th lumbar vertebral bone mineral density) (ovariectomized rats; [11]): 107 ± 13 mg/cm^2 | Vertebra (5th lumbar vertebra weight) (ovariectomized rats; [11]): 273 ± 32 mg | Vertebra (5th lumbar vertebral height) (ovariectomized rats; [11]): 6.9 ± 0.6 mm | Final weight (ovariectomized rats; ovariectomized rats, oxytocin 1.0 mg/kg sc for 10 days, after 30 days, mean ± SD, 15 rats): 334 ± 31 g | bone loss in ovariectomized rats (ovariectomized rats; oxytocin treatment for 10 days): suppresses bone loss
